The nature of data set [1]: Drug uptake in human HCT116 cell chromatin at 1 uM after 12 hrs by confocal fluorescence microscopy. Particulars: hct-116, 12 h; call rule not given here. In kind it is ADME, cell-based.
The nature of data set [2]: Drug uptake in human HCT116 cells cytosol at 1 uM after 12 hrs by confocal fluorescence microscopy. In kind it is ADME, cell-based, HCT-116.
In a further data set the test system is HeLa. The data set can be described thus: Cytotoxicity against human HeLa cells after 24 hrs by MTT assay. In kind it is functional, cell-based.
The nature of data set [3]: Drug uptake in human HCT116 mitochondria at 1 uM by using Mito Tracker Red 580 staining. In kind it is ADME.
Data set [4] can be described thus: Drug uptake in human HCT116 cell […] at 1 uM by using Lyso Tracker Red DND-99 staining. The data set is classed as ADME, cell-based. Particulars: hct-116, 1 µM.
Data set [5] is described as follows: Drug uptake in human HCT116 cell nuclear membrane at 1 uM after 12 hrs by confocal fluorescence microscopy. The data set is classed as ADME, cell membranes. To be noted: hct-116, 12 h.
The nature of data set [6]: Drug uptake in human HCT116 cell lysosomes at 1 uM by using Lyso Tracker Red DND-99 staining. In kind it is ADME, cell-based, Lysosome. To be noted: hct-116, 1 µM.
Data set [7] deals with HCT-116. The data set can be described thus: Cytotoxicity against human HCT116 cells after 24 hrs by MTT assay. Particulars: HCT-116, 24 h. In kind it is functional, cell-based. Background: Tetrazolium assays rely on reduction of a dye to a coloured formazan, in cell work by metabolically active cells.
Data set [8] has as its system HCT-116. Kind of data set: Cellular uptake in human HCT116 cells at 1 uM after 1 hr by confocal fluorescence microscopy. The data set is classed as ADME, cell-based. To be noted: hct-116, 1 h.
The nature of data set [9]: Cytotoxicity against mouse Neuro2a cells after 24 hrs by MTT assay. In kind it is functional, cell-based. To be noted: N2a.
Data set [10] in a line: Drug uptake in human HCT116 cell subcellular region at 1 uM incubated for 3 hrs measured after 30 hrs of drug washout by confocal fluorescence microscopy. The data set is classed as ADME, cell-based. To be noted: hct-116, 3 h.

A word on the IC50: it is the point on the concentration scale where inhibition reaches its midpoint. A higher IC50 goes with lower potency. For `CC(=O)c1ccc(OC2Cc3c(ccc(C(C)=O)c3O)O2)cc1O` (stereo unspecified), the Drug uptake result in [1] is on record as “Active”; in data set [2], “Active”; in [3] it was “Not Active”; in data set [4], “Not Active”; in data set [5], “Active”; in [6], “Not Active”. Further, the Drug uptake entry (in the data set on HCT-116 [8]; in [10]) was “Active” each time. Moreover, the figures for the IC50 (with HeLa; with HCT-116 [7]; in data set [9]) were 490 nM, 220 nM and 81 nM, respectively.

The record behind these values is ChEMBL document CHEMBL1909600, “Ganodone, a bioactive benzofuran from the fruiting bodies of Ganoderma tsugae” (J Nat Prod, 2011).
